Read-outs that look alike come from different tables or passages of the source.

The values below come from patent US20080115236A1, “CBG gene as a genetic marker of hypercortisolism and associated pathologies” (Institut National de la Recherche Agronomique (INRA), a …, priority 2001, published 2008).

The assay has as its target T1, CBG (corticosteroid-binding globulin, transcortin) (Sus scrofa, UniProt Q9GK37).
T1 construct: quantity of cortisol specifically fixed to the glycoproteins adsorbed on the gel; from tissue; host or cells: pig blood plasma (Large White and Meishan, n = 12 each)
T1 sequence (Q9GK37 23-406): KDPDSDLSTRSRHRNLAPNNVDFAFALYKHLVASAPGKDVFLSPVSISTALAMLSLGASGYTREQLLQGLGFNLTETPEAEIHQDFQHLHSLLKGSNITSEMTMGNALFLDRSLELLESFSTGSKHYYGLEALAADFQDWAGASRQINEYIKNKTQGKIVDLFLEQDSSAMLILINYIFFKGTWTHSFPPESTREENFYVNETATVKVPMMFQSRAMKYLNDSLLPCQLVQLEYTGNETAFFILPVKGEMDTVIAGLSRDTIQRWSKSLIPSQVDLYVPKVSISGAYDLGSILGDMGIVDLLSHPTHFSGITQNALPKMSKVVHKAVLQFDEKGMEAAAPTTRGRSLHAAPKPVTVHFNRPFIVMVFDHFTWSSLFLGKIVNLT
The experiment in a line: solid phase fixation (radiobinding) test of cortisol binding to plasma CBG, Concavalin A-Sepharose, Scatchard analysis. To be noted: n = 12, plasma CBG, 4° C., read-out: Kd (affinity of CBG for cortisol). On the set-up: species or system pig. The method, then: The binding capacity of CBG and its affinity for cortisol were measured at 4° C. by a solid phase fixation test using a Concavalin A-Sepharose column (Pugeat et al., 1984). The association equilibrium constant (Ka) and the capacity of CBG for cortisol were calculated by a Scatchard analysis using “bound” as the quantity of cortisol specifically fixed to the glycoproteins adsorbed on the gel and “free” as the concentration of cortisol in the aqueous phase.
At the protein level, the capacity of binding to cortisol and the affinity constant of CBG were compared between the LW and Meishan pigs by radiobinding studies. No difference in affinity was found between the two breeds of pigs.

Broadly, the Kd is the equilibrium constant for the complex coming apart. For `C[C@]12CCC(=O)C=C1CC[C@@H]1[C@@H]2[C@@H](O)C[C@@]2(C)[C@H]1CC[C@]2(O)C(=O)CO` [cortisol], the Kd by setting is: (Large White pigs) 0.38 ± 0.05 nM; (Meishan pigs) 0.46 ± 0.05 nM.
